# Laboratory results published in the supplement of paper PMC11451515.
# System: NOMO1
# Assay: cell viability relative to DMSO control; higher = less cytotoxic
# Settings: 48 h
# How it was run: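 Cells were incubated for 48 h at 37°C before CellTiter-Glo One luminescence was read. The cells were NOMO1 or SEM (500 cells/well) or P12-Ichikawa (1000 cells/well) leukemia cells, adapted for at least four passages in each medium and seeded in 1536-well plates (5 μl). Dosing used library compounds in DMSO applied by pin over 11 threefold points, 47 μM to 0.79 nM. Viability is the per-plate percentage of DMSO wells, with cell-free wells as background.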
# [1] = HPLM + 10% dialyzed FBS, 0.000781 µM
# [2] = HPLM + 10% dialyzed FBS, 0.00234 µM
# [3] = HPLM + 10% dialyzed FBS, 0.00702 µM
# [4] = HPLM + 10% dialyzed FBS, 0.0211 µM
# [5] = HPLM + 10% dialyzed FBS, 0.0632 µM
# [6] = HPLM + 10% dialyzed FBS, 0.19 µM
# [7] = HPLM + 10% dialyzed FBS, 0.569 µM
# [8] = HPLM + 10% dialyzed FBS, 1.71 µM
# [9] = HPLM + 10% dialyzed FBS, 5.12 µM
# [10] = HPLM + 10% dialyzed FBS, 15.4 µM
# [11] = HPLM + 10% dialyzed FBS, 46.1 µM
# [12] = RPMI 5 mM glucose + 10% FBS, 0.000781 µM
# [13] = RPMI 5 mM glucose + 10% FBS, 0.00234 µM
# [14] = RPMI 5 mM glucose + 10% FBS, 0.00702 µM
# [15] = RPMI 5 mM glucose + 10% FBS, 0.0211 µM
# [16] = RPMI 5 mM glucose + 10% FBS, 0.0632 µM
# [17] = RPMI 5 mM glucose + 10% FBS, 0.19 µM
# [18] = RPMI 5 mM glucose + 10% FBS, 0.569 µM
# [19] = RPMI 5 mM glucose + 10% FBS, 1.71 µM
# [20] = RPMI 5 mM glucose + 10% FBS, 5.12 µM
# [21] = RPMI 5 mM glucose + 10% FBS, 15.4 µM
# [22] = RPMI 5 mM glucose + 10% FBS, 46.1 µM
# [23] = RPMI 5 mM glucose + 10% dialyzed FBS, 0.000781 µM
# [24] = RPMI 5 mM glucose + 10% dialyzed FBS, 0.00234 µM
# [25] = RPMI 5 mM glucose + 10% dialyzed FBS, 0.00702 µM
# [26] = RPMI 5 mM glucose + 10% dialyzed FBS, 0.0211 µM
# [27] = RPMI 5 mM glucose + 10% dialyzed FBS, 0.0632 µM
# [28] = RPMI 5 mM glucose + 10% dialyzed FBS, 0.19 µM
# [29] = RPMI 5 mM glucose + 10% dialyzed FBS, 0.569 µM
# [30] = RPMI 5 mM glucose + 10% dialyzed FBS, 1.71 µM
# [31] = RPMI 5 mM glucose + 10% dialyzed FBS, 5.12 µM
# [32] = RPMI 5 mM glucose + 10% dialyzed FBS, 15.4 µM
# [33] = RPMI 5 mM glucose + 10% dialyzed FBS, 46.1 µM
SMILES,cell viability [1] [%],cell viability [2] [%],cell viability [3] [%],cell viability [4] [%],cell viability [5] [%],cell viability [6] [%],cell viability [7] [%],cell viability [8] [%],cell viability [9] [%],cell viability [10] [%],cell viability [11] [%],cell viability [12] [%],cell viability [13] [%],cell viability [14] [%],cell viability [15] [%],cell viability [16] [%],cell viability [17] [%],cell viability [18] [%],cell viability [19] [%],cell viability [20] [%],cell viability [21] [%],cell viability [22] [%],cell viability [23] [%],cell viability [24] [%],cell viability [25] [%],cell viability [26] [%],cell viability [27] [%],cell viability [28] [%],cell viability [29] [%],cell viability [30] [%],cell viability [31] [%],cell viability [32] [%],cell viability [33] [%]
COC1=C(OCCCN2CCOCC2)C=CC\3=C1/N=C(/NC(=O)C4=CN=C(N)N=C4)N5CC/N=C35,101,111,111,89.4,99.4,73.2,55.5,59.4,44.6,42.2,39.8,83.3,90.5,84.4,78.9,83.3,80.5,71.9,59.6,52,49.3,46.1,94.7,105,88.9,92.7,77.8,63.5,59.6,54.1,49.6,49.1,34.6
Nc1ccc([S+](=O)([O-])Nc2ccnn2-c2ccccc2)cc1,85.1,97.6,104,101,108,98.6,100,98.3,107,102,113,84.7,98.5,97.8,105,98.9,97,99.4,95.6,102,94.1,96.8,81.4,90.1,91.8,95.1,100,104,94.7,93.8,90.1,92.6,101
CC(=O)Oc1ccccc1C(=O)Nc1ncc([N+](=O)[O-])s1,98.9,100,98.9,107,111,105,106,96.1,98.4,71.8,89.4,84,92,93.4,96.4,115,92.3,102,103,104,97.6,96.9,83.7,95.2,77.7,86.3,94.8,98.8,95.7,98.4,86.3,69.2,75.1
COC(=O)C\1=C(C)\N\C(=C(/C1C2=CC=CC3=NON=C23)C(=O)OC(C)C)C (centres undefined),115,116,104,111,111,108,96.3,89.8,88.8,96.3,85.1,95.4,94.6,91.3,99.3,103,89.4,94.5,85.2,81.4,86.6,94.7,105,101,100,108,88.7,92.3,87.8,102,92.8,93.4,106
CCCCCNC(=O)N1CCC(CN(Cc2ccc(Cl)cc2)Cc2ccc([N+](=O)[O-])s2)C1 (centres undefined),–,–,–,–,–,–,–,–,–,–,–,123,111,104,102,107,120,108,112,110,94.5,94.8,–,–,–,–,–,–,–,–,–,–,–
OCC(O)C(O)C(O)CO (centres undefined),98.8,88.8,87.7,104,81.7,92.4,99,86.3,96.7,70.2,80,84,99.3,92.6,84.4,89.9,87.7,84.9,85.8,82,82.1,80,77.9,86.8,112,96.2,106,106,103,84.9,89,72.5,94.6
CC12CC3CC(C)(C1)CC(N)(C3)C2,119,111,120,98.4,125,139,134,129,107,89.2,49.7,105,116,133,113,122,128,134,108,127,100,58.5,111,105,114,111,116,132,135,120,113,102,78
COC1=CC=C(C(=C1)OC(C)C)C/2=N/[C@@H]([C@@H](N2C(=O)N3CCNC(=O)C3)C4=CC=C(Cl)C=C4)C5=CC=C(Cl)C=C5,119,115,114,120,119,112,124,105,96.1,29.3,5.33,105,118,106,100,103,103,104,103,95.9,78.1,7.76,100,102,104,105,102,114,106,103,90.8,70.3,17.7
O=C(c1ccccc1)c1ccc2n1CCC2C(=O)O (centres undefined),–,–,–,–,–,–,–,–,–,–,–,121,113,125,130,108,122,120,110,111,115,98.6,107,115,110,121,125,108,116,115,97.4,103,107
CCCCN(CCCC)CC(O)c1cc(Cl)cc2c1-c1ccc(Cl)cc1/C2=C/c1ccc(Cl)cc1 (centres undefined),94.7,87.5,104,107,93.6,107,90.5,97.9,82.6,95,92.6,83.3,102,94.6,87.1,105,86.9,87.5,90.7,104,94.9,97.8,104,91.8,93.7,104,99.4,104,102,89.8,95.4,72.9,103
CN1\C=N/C2=CC=C(NC3=CC(=CC=C3C)NC(=O)C4=CC(=CC=C4)C(C)(C)C#N)C=C2C1=O,97.8,107,96.4,105,92.7,94.6,76.8,76.3,52.1,52.7,19.1,93.6,95.1,111,99,89.6,88.5,81.2,75.6,47.7,46.3,28.1,110,92.4,92.9,101,91.2,79.2,76.6,65.5,46.8,46.3,28.6
COC(=O)c1ccc2c(c1)NC(=O)/C2=C(\Nc1ccc(N(C)C(=O)CN2CCN(C)CC2)cc1)c1ccccc1,92.1,92.1,106,99.5,106,91.3,89,103,87,91.9,84.4,98.3,96.8,96.5,97.4,89.3,110,109,97.8,92.6,83.4,83.1,92.7,93,94.7,90.8,93.5,95.2,85.3,88.9,88.5,96.8,98.5
O=C(O)c1cc(/N=N/c2ccc([S+](=O)([O-])Nc3ccccn3)cc2)ccc1O,102,113,108,104,121,109,104,115,111,105,91,101,107,115,96.8,99.2,102,102,98.2,114,98.7,97.6,95.1,96.9,109,94.3,106,97,115,111,91.2,98.9,102
N[C@@H]1CONC1=O,90.7,110,112,101,99.4,107,104,110,107,94.4,105,84.4,88.7,95.7,91.6,94.4,90.6,94.2,99.4,94.6,90.1,88.7,87.4,98.8,112,96,99.3,101,107,88,96.2,89.9,93.7
CC[C@H]1OC(=O)[C@H](C)C(=O)[C@H](C)[C@@H](O[C@H]2O[C@H](C)C[C@H](N(C)C)[C@H]2O)[C@](C)(OC)C[C@@H](C)C(=O)[C@H](C)[C@H]2N(CCCCn3cnc(-c4cccnc4)c3)C(=O)O[C@]12C,–,–,–,–,–,–,–,–,–,–,–,127,118,118,111,115,120,104,116,118,107,103,102,121,110,109,113,104,100,98.8,116,107,95.9
Cc1ccnc2c1NC(=O)c1cccnc1N2C1CC1,102,104,98.7,121,112,112,113,89.7,55.3,61.4,35.8,85.2,107,93.1,100,103,118,93.3,84.1,59.3,68.1,59.1,94.8,102,110,98.6,113,97.1,110,97.4,52.7,79.4,79.4
